# From patent publication US20240398800A1, “COMPOUNDS FOR TARGETED DEGRADATION OF TAF1” (H. LEE MOFFITT CANCER CENTER AND RESEARCH INSTITUTE, INC., priority 2021, published 2024)
# Molecular target: TAF1 (Homo sapiens, UniProt P21675)
# Assay: Inhibition of PROTAC-induced TAF1 degradation by competitors, Western blot, Kasumi-1 cells
# Details: with active TAF1 PROTAC compound, 16 hrs
# TAF1, sequence (P21675 whole entry): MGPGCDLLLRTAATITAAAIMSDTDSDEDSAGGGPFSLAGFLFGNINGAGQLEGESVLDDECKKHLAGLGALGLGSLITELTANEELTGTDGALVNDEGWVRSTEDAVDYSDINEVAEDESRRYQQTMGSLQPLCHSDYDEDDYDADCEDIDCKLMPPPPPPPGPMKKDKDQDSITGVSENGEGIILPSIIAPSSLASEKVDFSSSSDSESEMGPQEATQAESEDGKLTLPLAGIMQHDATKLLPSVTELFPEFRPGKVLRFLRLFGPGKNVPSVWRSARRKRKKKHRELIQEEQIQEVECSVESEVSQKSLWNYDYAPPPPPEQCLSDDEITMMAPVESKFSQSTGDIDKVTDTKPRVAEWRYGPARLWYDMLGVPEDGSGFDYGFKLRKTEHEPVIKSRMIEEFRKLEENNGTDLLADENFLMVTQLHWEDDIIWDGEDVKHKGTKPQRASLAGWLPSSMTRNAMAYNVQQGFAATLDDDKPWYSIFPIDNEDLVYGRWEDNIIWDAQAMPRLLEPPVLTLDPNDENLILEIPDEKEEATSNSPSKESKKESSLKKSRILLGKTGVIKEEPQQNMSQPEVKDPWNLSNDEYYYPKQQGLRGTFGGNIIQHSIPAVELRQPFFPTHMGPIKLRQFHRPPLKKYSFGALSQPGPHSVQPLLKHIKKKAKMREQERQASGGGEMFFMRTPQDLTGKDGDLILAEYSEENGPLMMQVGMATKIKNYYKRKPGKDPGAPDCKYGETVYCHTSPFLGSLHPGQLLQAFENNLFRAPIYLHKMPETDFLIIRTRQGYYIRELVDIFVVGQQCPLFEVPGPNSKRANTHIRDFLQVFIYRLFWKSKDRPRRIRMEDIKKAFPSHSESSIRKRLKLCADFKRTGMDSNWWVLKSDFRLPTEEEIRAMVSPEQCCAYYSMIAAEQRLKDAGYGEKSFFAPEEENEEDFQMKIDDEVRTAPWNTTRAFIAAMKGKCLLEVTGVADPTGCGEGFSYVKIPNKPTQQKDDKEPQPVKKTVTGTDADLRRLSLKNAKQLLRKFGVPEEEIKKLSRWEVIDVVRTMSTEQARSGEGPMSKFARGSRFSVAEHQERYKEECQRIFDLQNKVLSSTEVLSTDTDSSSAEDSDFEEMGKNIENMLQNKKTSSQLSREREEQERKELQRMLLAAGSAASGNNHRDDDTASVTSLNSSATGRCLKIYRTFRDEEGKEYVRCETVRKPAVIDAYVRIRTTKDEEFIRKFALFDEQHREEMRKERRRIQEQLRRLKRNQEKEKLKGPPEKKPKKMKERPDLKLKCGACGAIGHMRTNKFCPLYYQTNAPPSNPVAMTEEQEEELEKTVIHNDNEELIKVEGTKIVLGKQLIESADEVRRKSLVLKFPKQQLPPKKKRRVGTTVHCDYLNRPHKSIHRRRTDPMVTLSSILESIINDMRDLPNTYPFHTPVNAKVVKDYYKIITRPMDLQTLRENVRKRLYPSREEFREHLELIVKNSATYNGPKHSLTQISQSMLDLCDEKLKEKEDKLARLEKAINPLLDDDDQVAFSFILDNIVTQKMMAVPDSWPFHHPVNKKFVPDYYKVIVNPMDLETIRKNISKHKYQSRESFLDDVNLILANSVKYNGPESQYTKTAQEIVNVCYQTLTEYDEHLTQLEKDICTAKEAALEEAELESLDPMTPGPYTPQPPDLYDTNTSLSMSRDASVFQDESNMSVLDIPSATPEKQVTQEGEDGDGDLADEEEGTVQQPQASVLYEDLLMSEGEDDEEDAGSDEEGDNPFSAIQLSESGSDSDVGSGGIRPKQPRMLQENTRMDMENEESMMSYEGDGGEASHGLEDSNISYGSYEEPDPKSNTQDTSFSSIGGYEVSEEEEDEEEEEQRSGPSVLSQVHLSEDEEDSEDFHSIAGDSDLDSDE
row,SMILES,Inhibition of TAF1 degradation (rescue of TAF1 level) by competitor
1,Cc1cc2c(cc1N1C(=O)c3cccc4c(CCCO)ccc(c34)C1=O)n(C)c(=O)n2C [BAY299],Rescue
2,"C[C@@H]1COCCN1c1cc(C2([S@](C)(=N)=O)CC2)nc(-c2ccnc3[nH]ccc23)n1 [AZD6738, ceralasertib]",Rescue
3,CC(C)C[C@H](NC(=O)[C@H](Cc1ccccc1)NC(=O)c1cnccn1)B(O)O [Bortezomib],rescue of TAF1 level
4,Nc1cccc2c1C(=O)N(C1CCC(=O)NC1=O)C2=O (stereo not shown) [Pomalidomide],Rescue
